Test results from patent US20260274867A1, “PYRIDO[4,3-D]PYRIMIDINE DERIVATIVES AS MUTANT KRAS G12C INHIBITORS FOR THE TREATMENT OF CANCER” (Frontier Medicines Corporation, priority 2023, published 2026).

Target: T1, KRAS G12C (GMPPNP-loaded, Cys-light, amino acids 1-169) and cRAF Ras-binding domain interaction (Homo sapiens, UniProt P01116, C118S/C51S/C80L/G12C)
T1 construct: truncated version comprising amino acids 1-169
Test: Inhibition of KRAS G12C and cRAF binding (AlphaScreen)
Settings: KRAS G12C preloaded with GMPPNP, 2 hours compound incubation, room temperature
Experimental: The AlphaScreen technology was used to determine IC50s for compound inhibition of KRAS G12C (present as the Cys-light (C51S, C80L and C118S), truncated version comprising amino acids 1-169) and cRAF interaction. Compounds were diluted in 100% DMSO and each compound concentration was spotted at 200 nl/well onto low volume, white 384 well plates. The KRAS G12C contained a biotin-AviTag and the cRaf, as Ras-binding domain (amino acids 50-131, RBD), was GST-tagged. KRAS G12C was preloaded with the GTP analogue Guanosine 5′-[…] (GMPPNP). The KRAS G12C was diluted in 25 mM Hepes, pH 7.4, 150 mM NaCl, 5 mM MgCl2, 0.01% TritonX-100 and 10 μM GMPPNP and added at 10 ul/well to compound-spotted plates resulting in a DMSO concentration of 2%. Plates were incubated for 2 hours. A mixture of RBD and the AlphaScreen streptavidin donor and glutathione acceptor beads diluted in 25 mM Hepes, pH 7.4, 150 mM NaCl, 5 mM MgCl2, 0.01% TritonX-100 and 2% DMSO was then added at 10 ul/well and incubated for 60-90 minutes before the samples were read for emission at 570 nm after excitation of the donor beads at 680 nm. All incubations were performed at room temperature. The final top compound concentration was 50 μM with 1:3 titrations for 10-point dose response curves. Final assay conditions were 0.5 nM KRAS G12C, 0.75 nM RBD and 5 μg/ml each of AlphaScreen donor and acceptor beads. IC50s were determined using nonlinear regression fit of [inhibitor] vs. response (4 parameters).
A counter assay was also set up to rule out inhibitors of the AlphaScreen technology itself. Compound plates were incubated for 2 hours as above with buffer only. The AlphaScreen beads were added as above except biotin-AviTag-GST was substituted for the RBD. Samples were read and analyzed as above.

T1 sequence (P01116 1-169 isoform P01116-2 G12C/C51S/C80L/C118S): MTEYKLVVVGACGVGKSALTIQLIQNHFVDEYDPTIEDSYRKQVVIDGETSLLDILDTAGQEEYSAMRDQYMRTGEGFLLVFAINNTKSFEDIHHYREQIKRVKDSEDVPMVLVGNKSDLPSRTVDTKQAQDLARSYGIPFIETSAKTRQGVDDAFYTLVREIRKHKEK

Row | IC50 [nM] | SMILES
1 | < 10 | Cc1cc(/C=C(\F)C(=O)N2CCN(c3nc(OC[C@@]45CCCN4C[C@H](F)C5)nc4c(F)c(-c5cccc(Cl)c5C5CC5)ncc34)C[C@@H]2CC#N)nc(C)n1 [Compound 32, 2-((S)-4-(7-(3-chloro-2-cyclopropylphenyl)-8-fluoro-2-(((2R,7aS)-2-fluorotetrahydro-1H-pyrrolizin-7a(5H)-yl)methoxy)pyrido[4,3-d]pyrimidin-4-yl)-1-((Z)-3-(2,6-dimethylpyrimidin-4-yl)-2-fluoroacryloyl)piperazin-2-yl)acetonitrile]
2 | < 10 | Cc1nccc(/C=C(\F)C(=O)N2CCN(c3nc(OC[C@@]45CCCN4C[C@H](F)C5)nc4c(F)c(-c5cccc6cccc(F)c56)ncc34)C[C@@H]2CC#N)n1 [Compound 33]
3 | < 10 | Cc1cc(/C=C(\F)C(=O)N2CCN(c3nc(OC[C@@]45CCCN4C[C@H](F)C5)nc4c(F)c(-c5cccc6ccc(F)c(C)c56)ncc34)C[C@@H]2CC#N)nc(C)n1 [Compound 34]
4 | < 10 | Cc1cc(/C=C(\F)C(=O)N2CCN(c3nc(OC[C@@]45CCCN4C[C@H](F)C5)nc4c(F)c(-c5cccc6ccc(F)c(Cl)c56)ncc34)C[C@@H]2CC#N)nc(C)n1 [Compound 35]
5 | 100 to 500 | Cc1nccc(/C=C(\F)C(=O)N2CC[C@H](O)[C@@H](N(C)c3nc(OC[C@@]45CCCN4C[C@H](F)C5)nc4c(F)c(-c5cccc6cccc(Cl)c56)ncc34)C2)n1 [Compound 36]
6 | < 10 | Cc1nccc(/C=C(\F)C(=O)N2CC[C@@H](N(C)c3nc(OC[C@@]45CCCN4C[C@H](F)C5)nc4c(F)c(-c5cccc6cccc(Cl)c56)ncc34)C2)n1 [Compound 37, (Z)-1-((R)-3-((7-(8-chloronaphthalen-1-yl)-8-fluoro-2-(((2R,7aS)-2-fluorotetrahydro-1H-pyrrolizin-7a(5H)-yl)methoxy)pyrido[4,3-d]pyrimidin-4-yl)(methyl)amino)pyrrolidin-1-yl)-2-fluoro-3-(2-methylpyrimidin-4-yl)prop-2-en-1-one]
7 | < 10 | Cc1nccc(/C=C(\F)C(=O)N2CC[C@@H](N(C)c3nc(OC[C@@]45CCCN4C[C@H](F)C5)nc4c(F)c(-c5cccc6ccc(F)c(F)c56)ncc34)C2)n1 [Compound 38]
8 | < 10 | Cc1nccc(/C=C(\F)C(=O)N2CC[C@@H](N(C)c3nc(OC[C@@]45CCCN4C[C@H](F)C5)nc4c(F)c(-c5cccc(Cl)c5C5CC5)ncc34)C2)n1 [Compound 39]
9 | < 10 | Cc1nccc(/C=C(\F)C(=O)N2CC(CN(C)c3nc(OC[C@@]45CCCN4C[C@H](F)C5)nc4c(F)c(-c5cccc6cccc(Cl)c56)ncc34)C2)n1 [Compound 40]
10 | < 10 | Cc1cc(/C=C(\F)C(=O)N2CC[C@@H](N(C)c3nc(OC[C@@]45CCCN4C[C@H](F)C5)nc4c(F)c(-c5cccc6ccc(F)c(F)c56)ncc34)C2)nc(C)n1 [Compound 41, (Z)-1-((R)-3-((7-(7,8-difluoronaphthalen-1-yl)-8-fluoro-2-(((2R,7aS)-2-fluorotetrahydro-1H-pyrrolizin-7a(5H)-yl)methoxy)pyrido[4,3-d]pyrimidin-4-yl)(methyl)amino)pyrrolidin-1-yl)-3-(2,6-dimethylpyrimidin-4-yl)-2-fluoroprop-2-en-1-one]
11 | < 10 | C#Cc1c(F)ccc2cccc(-c3ncc4c(N(C)[C@@H]5CCN(C(=O)/C(F)=C/c6ccnc(C)n6)C5)nc(OC[C@@]56CCCN5C[C@H](F)C6)nc4c3F)c12 [Compound 42]
12 | < 10 | Cc1nccc(/C=C(\F)C(=O)N2CC[C@@H](N(C)c3nc(OC[C@@]45CCCN4C[C@H](F)C5)nc4c(F)c(-c5cccc(Cl)c5C(F)(F)F)ncc34)C2)n1 [Compound 43]
13 | < 10 | C#Cc1c(F)ccc2cccc(-c3ncc4c(N(C)[C@@H]5CCN(C(=O)/C(F)=C/c6cc(C)nc(C)n6)C5)nc(OC[C@@]56CCCN5C[C@H](F)C6)nc4c3F)c12 [Compound 44, (Z)-3-(2,6-dimethylpyrimidin-4-yl)-1-((R)-3-((7-(8-ethynyl-7-fluoronaphthalen-1-yl)-8-fluoro-2-(((2R,7aS)-2-fluorotetrahydro-1H-pyrrolizin-7a(5H)-yl)methoxy)pyrido[4,3-d]pyrimidin-4-yl)(methyl)amino)pyrrolidin-1-yl)-2-fluoroprop-2-en-1-one]
14 | < 10 | CCc1c(F)ccc2cccc(-c3ncc4c(N(C)[C@@H]5CCN(C(=O)/C(F)=C/c6ccnc(C)n6)C5)nc(OC[C@@]56CCCN5C[C@H](F)C6)nc4c3F)c12 [Compound 45]
15 | < 10 | Cc1cc(/C=C(\F)C(=O)N2CC[C@@H](N(C)c3nc(OC[C@@]45CCCN4C[C@H](F)C5)nc4c(F)c(-c5cccc(Cl)c5C5CC5)ncc34)C2)nc(C)n1 [Compound 46, (Z)-1-((R)-3-((7-(3-chloro-2-cyclopropylphenyl)-8-fluoro-2-(((2R,7aS)-2-fluorotetrahydro-1H-pyrrolizin-7a(5H)-yl)methoxy)pyrido[4,3-d]pyrimidin-4-yl)(methyl)amino)pyrrolidin-1-yl)-3-(2,6-dimethylpyrimidin-4-yl)-2-fluoroprop-2-en-1-one]
16 | < 10 | Cc1cc(/C=C(\F)C(=O)N2CC[C@@H](N(C)c3nc(OC[C@@]45CCCN4C[C@H](F)C5)nc4c(F)c(-c5cccc(Cl)c5C(F)(F)F)ncc34)C2)nc(C)n1 [Compound 47]
17 | ≥ 500 | COc1nc(N(C)[C@@H]2CCN(C(=O)/C(F)=C/c3cc(C)nc(C)n3)C2)c2cnc(-c3cccc4ccc(F)c(F)c34)c(F)c2n1 [Compound 48]
18 | 100 to 500 | C#Cc1c(F)ccc2cccc(-c3ncc4c(N5CCN(C(=O)/C(F)=C/c6cc(C)nc(C)n6)[C@@H](CC#N)C5)nc(OC)nc4c3F)c12 [Compound 49, (S,Z)-2-(1-(3-(2,6-dimethylpyrimidin-4-yl)-2-fluoroacryloyl)-4-(7-(8-ethynyl-7-fluoronaphthalen-1-yl)-8-fluoro-2-methoxypyrido[4,3-d]pyrimidin-4-yl)piperazin-2-yl)acetonitrile]
19 | 10 to 100 | Cc1cc(/C=C(\F)C(=O)N2CC[C@@H](N(C)c3nc(OC[C@@H]4CCCN4C)nc4c(F)c(-c5cccc(Cl)c5C5CC5)ncc34)C2)nc(C)n1 [Compound 50]
20 | 100 to 500 | Cc1cc(/C=C(\F)C(=O)N2CC[C@@H](N(C)c3nc(N4CC(N(C)C)C4)nc4c(F)c(-c5cccc(Cl)c5C5CC5)ncc34)C2)nc(C)n1 [Compound 51]
21 | < 10 | Cc1cc(/C=C(\F)C(=O)N2CC[C@@H](N(C)c3nc(OC[C@@H]4CCCN4C)nc4c(F)c(-c5cccc6ccc(F)c(F)c56)ncc34)C2)nc(C)n1 [Compound 52]
22 | 10 to 100 | Cc1cc(/C=C(\F)C(=O)N2CC[C@@H](N(C)c3nc(N4CC(N(C)C)C4)nc4c(F)c(-c5cccc6ccc(F)c(F)c56)ncc34)C2)nc(C)n1 [Compound 53]
23 | ≥ 500 | COc1nc(N2CCN(C(=O)/C(F)=C/c3cc(C)nc(C)n3)[C@@H](CC#N)C2)c2cnc(-c3cccc4ccc(F)c(Cl)c34)c(F)c2n1 [Compound 54, (S,Z)-2-(4-(7-(8-chloro-7-fluoronaphthalen-1-yl)-8-fluoro-2-methoxypyrido[4,3-d]pyrimidin-4-yl)-1-(3-(2,6-dimethylpyrimidin-4-yl)-2-fluoroacryloyl)piperazin-2-yl)acetonitrile]
24 | < 10 | COc1nc(N2CCN(C(=O)/C(F)=C/c3cc(C)nc(C)n3)[C@@H](CC#N)C2)c2cnc(-c3cc(O)cc(Cl)c3C3CC3)c(F)c2n1 [Compound 55, (S,Z)-2-(4-(7-(3-chloro-2-cyclopropyl-5-hydroxyphenyl)-8-fluoro-2-methoxypyrido[4,3-d]pyrimidin-4-yl)-1-(3-(2,6-dimethylpyrimidin-4-yl)-2-fluoroacryloyl)piperazin-2-yl)acetonitrile]
25 | 100 to 500 | COc1nc(N(C)[C@@H]2CCN(C(=O)/C(F)=C/c3cc(C)nc(C)n3)C2)c2cnc(-c3cc(O)cc(Cl)c3C3CC3)c(F)c2n1 [Compound 56, (R,Z)-1-(3-((7-(3-chloro-2-cyclopropyl-5-hydroxyphenyl)-8-fluoro-2-methoxypyrido[4,3-d]pyrimidin-4-yl)(methyl)amino)pyrrolidin-1-yl)-3-(2,6-dimethylpyrimidin-4-yl)-2-fluoroprop-2-en-1-one]
26 | < 10 | Cc1cc(/C=C(\F)C(=O)N2CCN(c3nc(C)nc4c(F)c(-c5cc(O)cc(Cl)c5C5CC5)ncc34)C[C@@H]2CC#N)nc(C)n1 [Compound 57]
27 | < 10 | Cc1cc(/C=C(\F)C(=O)N2CCN(c3ncnc4c(F)c(-c5cc(O)cc(Cl)c5C5CC5)ncc34)C[C@@H]2CC#N)nc(C)n1 [Compound 58]
